In ChEMBL document CHEMBL1156832, “Cationic N-confused porphyrin derivative as a better molecule scaffold for G-quadruplex recognition” (Bioorg Med Chem, 2010):
The source made the active and inactive calls. The calls are words filed in the database; no cut-off is given here.

What was measured:
Nucleic Acid [1] = test: Binding affinity to human bcl2 promoter G-quadruplex sequence by surface plasmon resonance spectroscopy; type: nucleic-acid assay
Nucleic Acid [2] = test: Selectivity for human bcl2 promoter G-quadruplex sequence over double stranded DNA by surface plasmon resonance spectroscopy; type: nucleic-acid assay
Nucleic Acid [3] = test: Binding affinity to dsDNA by surface plasmon resonance spectroscopy; type: nucleic-acid assay
Nucleic Acid [4] = test: Induction of G-quadruplex stabilization in G4C oligonucleotide assessed as change in DNA melting temperature at [compound/G4C ratio = 2] in pH 7.4 10 mM Tris-HCl, 1 mM EDTA buffer by CD spectroscopy; type: nucleic-acid assay
Nucleic Acid [5] = test: Induction of G-quadruplex stabilization in G4C oligonucleotide assessed as change in DNA melting temperature at [compound/G4C ratio = 4] in pH 7.4 10 mM Tris-HCl, 1 mM EDTA buffer by CD spectroscopy; type: nucleic-acid assay
Nucleic Acid [6] = test: Induction of G-quadruplex stabilization in G4C oligonucleotide assessed as change in DNA melting temperature at [compound/G4C ratio = 3] in pH 7.4 10 mM Tris-HCl, 1 mM EDTA buffer by CD spectroscopy; type: nucleic-acid assay
Nucleic Acid [7] = test: Selectivity for human telomeric G-quadruplex sequence over double stranded DNA by surface plasmon resonance spectroscopy; type: nucleic-acid assay
Nucleic Acid [8] = test: Binding affinity to human telomeric G-quadruplex sequence by surface plasmon resonance spectroscopy; type: nucleic-acid assay
Nucleic Acid [9] = test: Induction of G-quadruplex stabilization in G4C oligonucleotide assessed as change in DNA melting temperature at [compound/G4C ratio = 1] in pH 7.4 10 mM Tris-HCl, 1 mM EDTA buffer by CD spectroscopy; type: nucleic-acid assay
Nucleic Acid [10] = test: Induction of G-quadruplex stabilization in G4C oligonucleotide assessed as change in DNA melting temperature at [compound/G4C ratio = 5] in pH 7.4 10 mM Tris-HCl, 1 mM EDTA buffer by CD spectroscopy; type: nucleic-acid assay
Nucleic Acid [11] = test: Selectivity for human c-myc promoter G-quadruplex sequence over double stranded DNA by surface plasmon resonance spectroscopy; type: nucleic-acid assay
Nucleic Acid [12] = test: Binding affinity to human c-myc promoter G-quadruplex sequence by surface plasmon resonance spectroscopy; type: nucleic-acid assay
Nucleic Acid [13] = test: Induction of G-quadruplex stabilization in G4C oligonucleotide in pH 7.4 10 mM Tris-HCl, 1 mM EDTA buffer by CD spectroscopy; type: nucleic-acid assay
Nucleic Acid [14] = test: Induction of G-quadruplex stabilization in HT4 oligonucleotide assessed as inhibition of DNA synthesis by Taq DNA polymerase stop assay
Nucleic Acid [15] = test: Induction of structural transition from antiparallel to the mixed-type hybrid G-quadruplex structure in human telomeric sequence (T2AG3)4 by CD spectroscopy; type: nucleic-acid assay
Nucleic Acid [16] = test: Binding affinity to F21T G-quadruplex DNA at 2.5 uM in presence of competitor dsDNA by competitive FRET melting assay; type: nucleic-acid assay

C[n+]1ccc(-c2c3nc(c(-c4cc[n+](C)cc4)c4ccc([nH]4)c(-c4cc[n+](C)cc4)c4ccc([nH]4)c(-c4cc[n+](C)cc4)c4nc2C=C4)C=C3)cc1 gave a KA (Nucleic Acid [1]) of 3.09 ×10⁷ /M, a Selectivity ratio (Nucleic Acid [2]) of 9 and a KA (Nucleic Acid [3]) of 3.62 ×10⁶ /M. It also gave a ΔTm (Nucleic Acid [4]) of 7.5 °C, a ΔTm (Nucleic Acid [5]) of 11.2 °C and a ΔTm (Nucleic Acid [6]) of 9.6 °C. The Selectivity ratio (Nucleic Acid [7]) was 13, the KA (Nucleic Acid [8]) was 4.65 ×10⁷ /M and the ΔTm (Nucleic Acid [9]) was 4.2 °C. It also gave a ΔTm (Nucleic Acid [10]) of 10 °C, a Selectivity ratio (Nucleic Acid [11]) of 28 and a KA (Nucleic Acid [12]) of 1.01 ×10⁸ /M.
Work on C1=Cc2nc1c(-c1ccc(C[n+]3ccccc3)cc1)c1nc(c(-c3ccc(C[n+]4ccccc4)cc3)c3ccc([nH]3)c(-c3ccc(C[n+]4ccccc4)cc3)c3ccc([nH]3)c2-c2ccc(C[n+]3ccccc3)cc2)C=C1 yielded a KA (Nucleic Acid [1]) of 1.74 ×10⁷ /M, a Selectivity ratio (Nucleic Acid [2]) of 25 and a KA (Nucleic Acid [3]) of 6.85 ×10⁵ /M. For the same compound, the ΔTm (Nucleic Acid [4]) was 3.3 °C, the ΔTm (Nucleic Acid [5]) was 6.5 °C and the ΔTm (Nucleic Acid [6]) was 5 °C. It also gave a Selectivity ratio (Nucleic Acid [7]) of 34, a KA (Nucleic Acid [8]) of 2.37 ×10⁷ /M and a ΔTm (Nucleic Acid [9]) of 2.2 °C. For the same compound, the ΔTm (Nucleic Acid [10]) was 7.6 °C, the Activity (Nucleic Acid [13]) was “Active” and the Selectivity ratio (Nucleic Acid [11]) was 85. For the same compound, the KA (Nucleic Acid [12]) was 5.82 ×10⁷ /M.
With C1=C/C2=C(\c3ccc(C[n+]4ccccc4)cc3)c3c[nH]c(c3)/C(c3ccc(C[n+]4ccccc4)cc3)=C3/C=CC(=N3)/C(c3ccc(C[n+]4ccccc4)cc3)=c3/cc/c([nH]3)=C(\c3ccc(C[n+]4ccccc4)cc3)C1=N2 the Activity (Nucleic Acid [14]) was “Dose-dependent effect”, the KA (Nucleic Acid [1]) was 1.42 ×10⁷ /M and the Selectivity ratio (Nucleic Acid [2]) was 108. For the same compound, the KA (Nucleic Acid [3]) was 1.32 ×10⁵ /M, the ΔTm (Nucleic Acid [4]) was 6.6 °C and the Activity (Nucleic Acid [15]) was “Active”. The ΔTm (Nucleic Acid [5]) was 9.2 °C, the ΔTm (Nucleic Acid [6]) was 8.3 °C and the Selectivity ratio (Nucleic Acid [7]) was 40. For the same compound, the KA (Nucleic Acid [8]) was 5.32 ×10⁶ /M, the ΔTm (Nucleic Acid [9]) was 3.8 °C and the ΔTm (Nucleic Acid [10]) was 9.3 °C. The Selectivity ratio (Nucleic Acid [11]) was 57, the Activity (Nucleic Acid [16]) was “Active” and the KA (Nucleic Acid [12]) was 7.54 ×10⁶ /M.
